# Patent publication US20120202856A1, “SUBSTITUTED BENZIMDAZOLE DERIVATIVES USEFUL AS TRPM8 RECEPTOR MODULATORS” (priority 2011, published 2012)
# Values joined by “and” are separate entries in the source; they are usually repeats but may differ in a detail not shown here. Equal entries are not always repeated. Structures can show the parent of a compound that is named as a salt.
# Target: T1, canine TRPM8 (Canis lupus familiaris, UniProt Q1A7N1)
# T1 construct: expressed in transfected cells
# Experiment: In Vitro Canine TRPM8 Functional Assay (intracellular Ca2+ fluorescence, icilin activation, HEK293 cells)
# Type: cell-based
# Details: for IC50: HEK293 cells expressing canine TRPM8, icilin activation, individually measured values (batches/salt forms), read-out: IC50 (nM), in vitro TRP M8 Activity
# Protocol: The changes in fluorescent signal were monitored by a fluorescence plate reader, either a FLIPR™ (Molecular Devices) or FDSS (Hamamatsu). […] Cells were maintained in 5% CO2 at 37° C. At 24 hr prior to assay, cells were seeded in black wall, clear-base poly-D-lysine coated 384-well plates (BD Biosciences, NJ, USA) at a density of 5,000 cells per well in culture medium and grown overnight in 5% CO2 at 37° C. On assay day, growth media was removed, and cells were loaded with Calcium 3 Dye (Molecular Devices) for 35 min at 37° C., under 5% CO2 and then incubated for 25 min at room temperature and atmosphere. Subsequently, cells were tested for agonist-induced increases in intracellular Ca^2+ levels using FLIPR™ or FDSS. […] Maximal fluorescence intensity (FI) achieved upon addition of icilin was exported from the FLIPR™ or FDSS software and further analyzed using GraphPad Prism 3.02 (Graph Pad Software Inc., CA, U.S.A.). Basal FI was subtracted prior to normalizing data to percent of maximal response. Curves were generated using the average of quadruplicate wells for each data point using nonlinear regression of either sigmoidal dose response or sigmoidal dose response (variable slope). Finally, IC50 values were calculated with the best-fit curve determined by GraphPad Prism
# T1 sequence (Q1A7N1 1-1104): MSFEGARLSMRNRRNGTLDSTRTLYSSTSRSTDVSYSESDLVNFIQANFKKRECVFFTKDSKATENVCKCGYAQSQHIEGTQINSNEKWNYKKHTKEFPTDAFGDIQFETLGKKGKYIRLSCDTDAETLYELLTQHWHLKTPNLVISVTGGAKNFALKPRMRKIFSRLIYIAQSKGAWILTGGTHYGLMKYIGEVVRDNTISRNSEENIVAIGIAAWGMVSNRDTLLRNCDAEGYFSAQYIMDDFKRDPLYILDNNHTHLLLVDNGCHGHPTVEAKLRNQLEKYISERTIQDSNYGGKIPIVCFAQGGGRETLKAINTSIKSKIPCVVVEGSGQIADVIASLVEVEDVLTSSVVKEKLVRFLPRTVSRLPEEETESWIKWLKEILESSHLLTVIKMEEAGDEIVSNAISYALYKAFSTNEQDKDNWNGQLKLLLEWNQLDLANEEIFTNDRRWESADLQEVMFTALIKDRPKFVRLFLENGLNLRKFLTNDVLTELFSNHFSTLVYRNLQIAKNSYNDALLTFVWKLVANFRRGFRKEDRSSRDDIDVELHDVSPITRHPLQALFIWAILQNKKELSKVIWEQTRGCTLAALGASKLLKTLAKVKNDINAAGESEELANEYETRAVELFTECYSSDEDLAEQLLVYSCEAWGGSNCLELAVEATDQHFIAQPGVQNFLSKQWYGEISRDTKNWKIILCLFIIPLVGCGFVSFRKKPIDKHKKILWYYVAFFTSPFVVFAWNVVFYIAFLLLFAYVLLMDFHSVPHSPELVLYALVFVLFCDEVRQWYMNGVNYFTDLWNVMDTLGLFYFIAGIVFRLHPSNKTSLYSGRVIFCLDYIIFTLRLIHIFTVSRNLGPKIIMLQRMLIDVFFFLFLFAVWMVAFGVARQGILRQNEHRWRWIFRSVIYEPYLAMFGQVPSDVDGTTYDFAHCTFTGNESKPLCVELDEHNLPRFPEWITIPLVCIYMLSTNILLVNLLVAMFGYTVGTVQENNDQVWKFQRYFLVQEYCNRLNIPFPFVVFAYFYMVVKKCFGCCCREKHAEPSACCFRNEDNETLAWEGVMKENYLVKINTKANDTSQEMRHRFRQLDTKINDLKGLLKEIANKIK
IC50,"inhibition at 0.2 µM (HEK293, 0.2 μM test compound, individually measured values, read-out: % Inh (%) @0.2 μM, in vitro TRP M8 Activity)",SMILES
24 nM and 35.7 nM,,"CC(C)(C)c1cc(-c2nc3cc(-c4ccccc4F)ccc3[nH]2)on1 [Compound 66, 2-(3-tert-Butyl-isoxazol-5-yl)-5-(2-fluoro-phenyl)-1H-benzimidazole trifluoroacetic acid salt]"
15.3 nM and 16.7 nM,,"CC(C)(C)c1cc(-c2nc3cc(-c4c(F)cccc4F)ccc3[nH]2)on1 [Compound 67, 2-(3-tert-Butyl-isoxazol-5-yl)-5-(2,6-difluoro-phenyl)-1H-benzimidazole trifluoroacetic acid salt]"
14.8 nM and 16.3 nM,,"CC(C)(C)c1cc(-c2nc3cc(-c4ccccc4Cl)ccc3[nH]2)on1 [Compound 68, 2-(3-tert-Butyl-isoxazol-5-yl)-5-(2-chloro-phenyl)-1H-benzimidazole trifluoroacetic acid salt]"
20.5 nM,,"CC(C)(C)c1cc(-c2nc3cc(-c4ccccc4C#N)ccc3[nH]2)on1 [Compound 69, 2-[2-(3-tert-Butyl-isoxazol-5-yl)-1H-benzimidazol-5-yl]-benzonitrile trifluoroacetic acid salt]"
134 nM,,"COc1cccc(F)c1-c1ccc2[nH]c(-c3cnc(C(C)(C)C)n3C)nc2c1 [Compound 70, 2-(2-tert-Butyl-3-methyl-3H-imidazol-4-yl)-5-(2-fluoro-6-methoxy-phenyl)-1H-benzimidazole trifluoroacetic acid salt]"
2 nM and 7 nM,,"Cn1nc(C(C)(C)C)cc1-c1nc2cc(-c3ccccc3OC(F)F)ccc2[nH]1 [Compound 81, 2-(5-tert-Butyl-2-methyl-2H-pyrazol-3-yl)-5-(2-difluoromethoxyphenyl)-1H-benzimidazole hydrochloride]"
11.6 nM and 1.8 nM,,"CC(C)(C)c1cc(-c2nc3cc(-c4c(F)cccc4C(F)(F)F)ccc3[nH]2)on1 [Compound 82, 2-(3-tert-Butyl-isoxazol-5-yl)-5-(2-fluoro-6-trifluoromethyl-phenyl)-1H-benzimidazole hydrochloride]"
5.7 nM and 8.6 nM,,"Cn1nc(C(C)(C)C)c(Cl)c1-c1nc2cc(-c3c(C(F)(F)F)cccc3C(F)(F)F)ccc2[nH]1 [Compound 87, 5-(2,6-Bis-trifluoromethyl-phenyl)-2-(5-tert-butyl-4-chloro-2-methyl-2H-pyrazol-3-yl)-1H-benzimidazole hydrochloride]"
3.6 nM and 9.7 nM,,"Cn1nc(C(C)(C)C)c(Cl)c1-c1nc2cc(-c3c(F)cccc3OC(F)(F)F)ccc2[nH]1 [Compound 88, 2-(5-tert-Butyl-4-chloro-2-methyl-2H-pyrazol-3-yl)-5-(2-fluoro-6-trifluoromethoxy-phenyl)-1H-benzimidazole hydrochloride]"
,7%,"Cn1nc(-c2nc3cc(-c4ccccc4C(F)(F)F)ccc3[nH]2)cc1C1CCC1 [Compound 91, 2-(5-Cyclobutyl-1-methyl-1H-pyrazol-3-yl)-5-(2-trifluoromethyl-phenyl)-1H-benzimidazole]"
24.5 nM,,"FC(F)(F)c1ccccc1-c1ccc2[nH]c(-c3cc(C4CCCC4)no3)nc2c1 [Compound 92, 2-(3-Cyclopentylisoxazol-5-yl)-5-(2-trifluoromethylphenyl)-1H-benzimidazole]"
10.9 nM,,"Cc1c(C(C)(C)C)nn(C)c1-c1nc2cc(-c3ccccc3F)ccc2[nH]1 [Compound 93, 2-(5-tert-Butyl-2,4-dimethyl-2H-pyrazol-3-yl)-5-(2-fluoro-phenyl)-1H-benzimidazole hydrochloride]"
4.5 nM,,"Cc1c(C(C)(C)C)nn(C)c1-c1nc2cc(-c3ccccc3Cl)ccc2[nH]1 [Compound 94, 2-(5-tert-Butyl-2,4-dimethyl-2H-pyrazol-3-yl)-5-(2-chloro-phenyl)-1H-benzimidazole hydrochloride]"
5.7 nM,,"Cc1c(C(C)(C)C)nn(C)c1-c1nc2cc(-c3c(F)cccc3F)ccc2[nH]1 [Compound 95, 2-(5-tert-Butyl-2,4-dimethyl-2H-pyrazol-3-yl)-5-(2,6-difluoro-phenyl)-1H-benzimidazole hydrochloride]"
